Measurements published in ChEMBL document CHEMBL1201862, “PubChem BioAssay data set” (2004).
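Step 1: Grow cells in 96-well plates. Step 2: Expose to compound for 48 hours at 5 concentrations. Step 3: Interpolate endpoints linearly; if unreached, use highest concentration. GI50 is the concentration that inhibits growth by half.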 Activity calls are given as the source filed them. No stated cut-off is given here; in the data, active = GI50 up to about 1.1 µM and inactive = higher.

Key:
Test in all cases: inhibition of tumour cell growth, NCI panel, 48 h
[1] = test system: ACHN
[2] = test system: BT-549
[3] = test system: COLO 205
[4] = test system: HCT-15
[5] = test system: Hs-578T
[6] = test system: KM12
[7] = test system: MOLT-4
[8] = test system: NCI-H522
[9] = test system: OVCAR-3
[10] = test system: OVCAR-4
[11] = test system: PC-3
[12] = test system: RXF 393
[13] = test system: SF-268
[14] = test system: SF-539
[15] = test system: SK-OV-3
[16] = test system: SNB-19
[17] = test system: SW-620
[18] = test system: T47D
[19] = test system: TK-10
[20] = test system: HCC 2998

Cc1n2nc(N)sc2n[n+]1Cc1ccccc1
GI50 [1]: > 100 µM (inactive) | GI50 [2]: 74.6 µM (inactive) | GI50 [3]: 21.4 µM (inactive) | GI50 [4]: > 100 µM | GI50 [5]: > 100 µM (inactive) | GI50 [6]: > 100 µM (inactive) | GI50 [7]: > 100 µM (inactive) | GI50 [8]: > 100 µM (inactive) | GI50 [9]: 89.9 µM (inactive) | GI50 [10]: > 100 µM (inactive) | GI50 [11]: > 100 µM (inactive) | GI50 [12]: > 100 µM (inactive) | GI50 [13]: 48.8 µM (inactive) | GI50 [14]: > 100 µM (inactive) | GI50 [15]: > 100 µM (inactive) | GI50 [16]: > 100 µM (inactive) | GI50 [17]: > 100 µM (inactive) | GI50 [18]: 38.4 µM (inactive) | GI50 [19]: > 100 µM (inactive)

N=C(CC(=O)NOC(=O)c1ccccc1)NOC(=O)c1ccccc1
GI50 [1]: 29.6 µM (inactive) | GI50 [2]: 25.2 µM (inactive) | GI50 [3]: 26.6 µM (inactive) | GI50 [4]: 38.5 µM | GI50 [5]: 36.2 µM (inactive) | GI50 [6]: 46 µM (inactive) | GI50 [7]: 28.5 µM (inactive) | GI50 [9]: 96.8 µM (inactive) | GI50 [10]: 18.3 µM (inactive) | GI50 [11]: > 100 µM (inactive) | GI50 [12]: 10.8 µM (inactive) | GI50 [13]: 23.2 µM (inactive) | GI50 [14]: 22.1 µM (inactive) | GI50 [15]: 28.7 µM (inactive) | GI50 [16]: 71.6 µM (inactive) | GI50 [17]: 50.8 µM (inactive) | GI50 [18]: > 100 µM (inactive) | GI50 [19]: 52 µM (inactive)

O=C(CCCN1CCC2(CC1)CC(=O)N(N1CCCCCC1)C2=O)c1ccc(F)cc1
GI50 [1]: > 100 µM (inactive) | GI50 [2]: 65.5 µM (inactive) | GI50 [3]: > 100 µM (inactive) | GI50 [4]: > 100 µM | GI50 [5]: 35.7 µM (inactive) | GI50 [7]: 36.1 µM (inactive) | GI50 [8]: 52.7 µM (inactive) | GI50 [9]: > 100 µM (inactive) | GI50 [10]: 40.6 µM (inactive) | GI50 [11]: > 100 µM (inactive) | GI50 [12]: 23.6 µM (inactive) | GI50 [13]: > 100 µM (inactive) | GI50 [14]: > 100 µM (inactive) | GI50 [15]: 91.6 µM (inactive) | GI50 [17]: > 100 µM (inactive) | GI50 [18]: 77.1 µM (inactive) | GI50 [19]: > 100 µM (inactive)

CC(C)(C)c1cc(/C=C2/NC(=O)NC2=O)cc(C(C)(C)C)c1O
GI50 [1]: 11.8 µM (inactive) | GI50 [2]: 13.7 µM (inactive) | GI50 [3]: 14.4 µM (inactive) | GI50 [4]: 13.2 µM | GI50 [5]: 15.2 µM (inactive) | GI50 [6]: 13.2 µM (inactive) | GI50 [7]: 17.1 µM (inactive) | GI50 [8]: 12 µM (inactive) | GI50 [9]: 14.2 µM (inactive) | GI50 [10]: 11.4 µM (inactive) | GI50 [11]: 7.46 µM (inactive) | GI50 [12]: 6.25 µM (inactive) | GI50 [13]: 14.3 µM (inactive) | GI50 [14]: 17 µM (inactive) | GI50 [15]: 16.8 µM (inactive) | GI50 [17]: 18.3 µM (inactive) | GI50 [18]: 2.91 µM (inactive) | GI50 [19]: 16.4 µM (inactive)

COc1ccc(-n2c(C)nc3ccc(NC4OC(COC(C)=O)C(OC(C)=O)C(OC(C)=O)C4OC(C)=O)cc3c2=O)cc1 (stereo unspecified)
GI50 [1]: > 100 µM (inactive) | GI50 [2]: > 100 µM (inactive) | GI50 [3]: 18.6 µM (inactive) | GI50 [20]: > 100 µM (inactive) | GI50 [4]: 76 µM | GI50 [5]: 49.8 µM (inactive) | GI50 [6]: > 100 µM (inactive) | GI50 [7]: 27.4 µM (inactive) | GI50 [8]: 21.8 µM (inactive) | GI50 [9]: > 100 µM (inactive) | GI50 [10]: > 100 µM (inactive) | GI50 [11]: > 100 µM (inactive) | GI50 [12]: 27.8 µM (inactive) | GI50 [13]: > 100 µM (inactive) | GI50 [16]: > 100 µM (inactive) | GI50 [17]: 39.1 µM (inactive) | GI50 [18]: > 100 µM (inactive) | GI50 [19]: 55.1 µM (inactive)

COC(=O)C1=CO[C@@H](OC2OC(CO)C(O)C(O)C2O)[C@@H]2[C@H](C)[C@@H](O)[C@@H](O)[C@]12O (stereo partly specified)
GI50 [1]: > 100 µM (inactive) | GI50 [2]: > 100 µM (inactive) | GI50 [3]: > 100 µM (inactive) | GI50 [20]: > 100 µM (inactive) | GI50 [4]: > 100 µM | GI50 [5]: > 100 µM (inactive) | GI50 [6]: > 100 µM (inactive) | GI50 [7]: > 100 µM (inactive) | GI50 [8]: > 100 µM (inactive) | GI50 [9]: > 100 µM (inactive) | GI50 [11]: > 100 µM (inactive) | GI50 [12]: > 100 µM (inactive) | GI50 [13]: > 100 µM (inactive) | GI50 [14]: > 100 µM (inactive) | GI50 [15]: > 100 µM (inactive) | GI50 [16]: > 100 µM (inactive) | GI50 [17]: > 100 µM (inactive) | GI50 [18]: > 100 µM (inactive) | GI50 [19]: > 100 µM (inactive)

COc1cc(CNc2ccc3nc4n(c(=O)c3c2)CCCCC4)cc(OC)c1OC
GI50 [1]: 35.2 µM (inactive) | GI50 [2]: 19.6 µM (inactive) | GI50 [3]: 35.9 µM (inactive) | GI50 [4]: 45.6 µM | GI50 [5]: 51.9 µM (inactive) | GI50 [6]: 58.6 µM (inactive) | GI50 [7]: 32.7 µM (inactive) | GI50 [8]: 39.9 µM (inactive) | GI50 [9]: 39.8 µM (inactive) | GI50 [10]: 22.7 µM (inactive) | GI50 [11]: 44.4 µM (inactive) | GI50 [12]: 58.6 µM (inactive) | GI50 [13]: 86.7 µM (inactive) | GI50 [14]: > 100 µM (inactive) | GI50 [15]: > 100 µM (inactive) | GI50 [17]: > 100 µM (inactive) | GI50 [18]: 24.1 µM (inactive) | GI50 [19]: 84.7 µM (inactive)

CC(C)(C)C(=O)N(C(=S)OCc1ccccn1)c1ccccc1
GI50 [1]: 38.5 µM (inactive) | GI50 [2]: 42.1 µM (inactive) | GI50 [3]: 21.8 µM (inactive) | GI50 [4]: 30.1 µM | GI50 [5]: 39 µM (inactive) | GI50 [6]: 26.4 µM (inactive) | GI50 [7]: 18.8 µM (inactive) | GI50 [9]: 30.9 µM (inactive) | GI50 [11]: 35.2 µM (inactive) | GI50 [12]: 18.2 µM (inactive) | GI50 [13]: 36.1 µM (inactive) | GI50 [14]: 20.4 µM (inactive) | GI50 [15]: > 100 µM (inactive) | GI50 [16]: 59.6 µM (inactive) | GI50 [17]: 47.6 µM (inactive) | GI50 [18]: 20 µM (inactive) | GI50 [19]: > 100 µM (inactive)

c1ccc2c(c1)OC(N1CCCC1)c1cnc(N3CCOCC3)nc1-2 (stereo unspecified)
GI50 [1]: 38.2 µM (inactive) | GI50 [2]: 17.1 µM (inactive) | GI50 [3]: 51.2 µM (inactive) | GI50 [4]: 45.4 µM | GI50 [5]: 51.1 µM (inactive) | GI50 [6]: > 100 µM (inactive) | GI50 [7]: 32.9 µM (inactive) | GI50 [9]: 34.5 µM (inactive) | GI50 [10]: 41.6 µM (inactive) | GI50 [11]: 41.3 µM (inactive) | GI50 [12]: 21.7 µM (inactive) | GI50 [13]: 40.6 µM (inactive) | GI50 [14]: > 100 µM (inactive) | GI50 [15]: 35.2 µM (inactive) | GI50 [16]: 53 µM (inactive) | GI50 [17]: 91 µM (inactive) | GI50 [18]: 3.54 µM (inactive) | GI50 [19]: 29.9 µM (inactive)

Cc1ccc2ccc(=O)oc2c1
GI50 [1]: > 100 µM (inactive) | GI50 [2]: > 100 µM (inactive) | GI50 [3]: > 100 µM (inactive) | GI50 [5]: > 100 µM (inactive) | GI50 [6]: > 100 µM (inactive) | GI50 [7]: > 100 µM (inactive) | GI50 [8]: > 100 µM (inactive) | GI50 [9]: > 100 µM (inactive) | GI50 [10]: > 100 µM (inactive) | GI50 [11]: > 100 µM (inactive) | GI50 [12]: > 100 µM (inactive) | GI50 [13]: > 100 µM (inactive) | GI50 [14]: > 100 µM (inactive) | GI50 [17]: > 100 µM (inactive) | GI50 [18]: 94.6 µM (inactive) | GI50 [19]: > 100 µM (inactive)

COc1ccc(/C=C/C(=O)c2cc(CN(C)C)c(O)c(CN(C)C)c2)cc1
GI50 [1]: 27.9 µM (inactive) | GI50 [2]: 27.9 µM (inactive) | GI50 [3]: 18.4 µM (inactive) | GI50 [20]: > 10 µM (inactive) | GI50 [4]: 40 µM | GI50 [5]: 43.6 µM (inactive) | GI50 [6]: 17.7 µM (inactive) | GI50 [7]: 28.2 µM (inactive) | GI50 [8]: 20.5 µM (inactive) | GI50 [9]: 18 µM (inactive) | GI50 [11]: 23.9 µM (inactive) | GI50 [12]: 31.7 µM (inactive) | GI50 [13]: 75.9 µM (inactive) | GI50 [14]: 45.3 µM (inactive) | GI50 [16]: 29.9 µM (inactive) | GI50 [17]: 36.9 µM (inactive) | GI50 [18]: 19.6 µM (inactive) | GI50 [19]: 40.6 µM (inactive)
